Read-outs that look alike come from different tables or passages of the source.
Assays:
[1] = test system: U87MG-wt and U87MG-kd (ITGAV, integrin αV knockdown) cells; assay: Cellular ruthenium uptake by ICP-MS in wild type vs ITGAV knockdown cells; format: cell-based, human; settings: normoxia, 10 μM, 3 h, 2D monolayers, n = 3
Method: Figure 2 Integrin targeting by Ru-p(HH), Ru-p(MH), and Ru-p(MM)in vitro. (a, b) Expression of integrin (a) αVβ3 and (b) αVβ5 in MCF7, PC-3, A549, MDA-MB-231, U87MG, and U87MG-kd cell lines under normoxic (21% O2) or hypoxic (1% O2) conditions. Note a: ITGAV was knockdown; see Methods. Bars represent the fluorescence intensity of the cells incubated with either anti-integrin αVβ3 or αVβ5 monoclonal antibodies followed by a secondary antibody conjugated to Alexa-Fluor 488. Error: standard deviation (SD), n = 2. (c) Ruthenium accumulation (μg Ru/million cells) of wild type U87MG (U87MG-wt) and ITGAV knockdown U87MG (U87MG-kd) cell lines after treatment with medium (control), Ru-p(HH), Ru-p(MH), Ru-p(MM), or [Ru(Ph2phen)2(bpy)]Cl2 (normoxia, 10 μM, 3 h). Error: standard deviation (SD), n = 3. Two-way ANOVA was used to determine the significance of the comparisons of data (*P < 0.05, **P < 0.01, ***P < 0.001, ****P < 0.0001).
In order to check whether the integrins […] were responsible for the cellular uptake of these conjugates, an ITGAV (integrin αV) knockdown U87MG cell line (U87MG-kd, Figure 2a,b) was prepared, and the cellular ruthenium uptake was measured using ICP-MS in wild type and knockdown U87MG 2D cell monolayers (Figure 2c). […]

U87MG cells = assay: 2D cytotoxicity assay, SRB end point, dark vs green light; format: cell-based, human; settings: normoxia (21% O2); for EC50: SRB at 96 h
Method: To test the in vitro phototoxicity of the three complexes toward 2D monolayer U87MG cells, a cell viability assay was undertaken as follows: the cells were seeded at t = 0, treated at t = 24 h, irradiated with green light (520 nm, 13.1 J cm^–2) at t = 48 h without refreshing the medium (drug-to-light interval = 24 h), further incubated in the dark for 48 h, and counted at t = 96 h with a sulforhodamine B (SRB) cell quantification end point assay.[45] Half-maximal effective concentrations (EC50 in μM), compared to untreated control, and photoindex (PI) values, defined as EC50,dark/ EC50,light, were calculated to characterize the toxicity and light activation of each Ru-peptide conjugate. […] However, a much stronger discrepancy appeared in the 2D toxicity data in hypoxic conditions (Table 2, Figure S22b). The phototherapeutic properties of Ru-p(HH) in the green light group were the poorest, leading to a PI of only 1.3. […] Ru-p(MH) stood somewhere between these values with a PI of 1.9 under hypoxia. […] The loss of activity of Ru-p(HH) under hypoxia is consistent with the hypothesis of a PDT pathway, while Ru-p(MM) keeping appreciable phototoxicity under hypoxia better fits the hypothesis of a PACT cell-killing mechanism.
U87MG cells (6000) were seeded in 96-well plates (Sarstedt, 83.3924), and each well contained 100 μL of Opti-MEM (Gibco complete medium 11058-021, supplemented with 2.5% v/v fetal calf serum (FCS), 0.2% v/v penicillin/streptomycin (P/S), and 1% v/v glutamine). They were then placed either in a normoxic (21% O2) or hypoxic (1.0% O2) incubator; 24 h later, different concentrations of Ru-p(HH), Ru-p(MH), or Ru-p(MM) dissolved in Opti-MEM (100 μL) were added to the wells in triplicate. For each complex, one dark and one light plate were involved. Each plate was further incubated in the dark for 24 h (DLI). After that, one plate was irradiated with green light (520 nm) for 20 min at 37 °C for normoxia (dose = 13.1 J cm^–2) or 30 min for hypoxia (dose = 13.0 J cm^–2), while the other plate was kept in the dark. The cells were further incubated for another 2 days in normoxic or hypoxic conditions, respectively. Finally, 100 μL of cold trichloroacetic acid (10% w/v) was added to each well to fix the cells, and all plates were then transferred to a 4 °C refrigerator for 48 h before an SRB cell quantification end point assay was performed.[45] All experiments were conducted in biologically independent triplicate.
Hypoxic cell models in vitro: all cells were incubated and passaged in a dark hypoxic incubator (1% O2) for at least 2 weeks before all hypoxia studies. Adding chemicals to the cells had to be performed in air; however, the cell-growing medium was kept in the hypoxia incubator for at least 2 days before the addition to hypoxic cells, and all hypoxic light irradiations were performed inside the hypoxic incubator set at 1.0% O2.

## [Ru(Ph2phen)2(bpy)]Cl2
[1]
  cellular ruthenium uptake in U87MG-kd compared to wild type U87MG: not lowered
U87MG cells
  PI, photoindex EC50,dark/EC50,light: 74.4
U87MG cells; 520 nm, 10.9 mW cm–2, 13.1 J cm–2, 20 min, DLI 24 h, n = 3, read-out: EC50, green light
  EC50: 0.18 µM
U87MG cells; light dose 0, 24 h treatment, no wash, n = 3, read-out: EC50, dark
  EC50: 13.4 µM
